Laboratory results as given in US20240024325A1, “Methods of Managing Cocaine or Other Drug Addictions” (Emory University, priority 2020, published 2024).
Entries after “also recorded” stand apart in the source; their conditions may differ.

Key:
[1] = tested on: Drosophila melanogaster; experiment: Cocaine-induced startle response and seizure activity in the Drosophila model; assay type: in vivo
Procedure: The percent time out of 45 seconds that each fly spent moving following a 42 cm drop was measured. Male flies exposed to cocaine spent less time moving than flies exposed to untreated food (p=2.13×10^−12). […] Error bars represent standard error.
Drosophila provides an advantageous model system for studies on cocaine consumption. […] In addition, flies develop sensitization to repeated intermittent exposure to cocaine. Startle behavior and the prevalence of seizure activity was measured in male and female flies. Measurements were taken following acute consumption of solid food, solid food supplemented with cocaine, or solid food supplemented with cocaine and ibrutinib. Male flies exposed to cocaine spent less time moving after being subjected to a mechanical startle (FIG. 3A). This is likely due to the occurrence of cocaine-induced seizures, which were scored as stationary periods.

[2] = tested on: mice; settings: cited from earlier work

SMILES	prevalence of cocaine-induced seizures during startle assay, female flies ([1]; female flies, cocaine and ibrutinib vs cocaine only, did not reach statistical significance)	percent time spent moving after mechanical startle (startle response) ([1]; male and female flies, food with cocaine and ibrutinib vs cocaine only, 45 seconds after 42 cm drop, FIG. 3A)	prevalence of cocaine-induced seizures during startle assay, male flies ([1]; male flies, cocaine and ibrutinib vs cocaine only, FIG. 3B)	binge drinking [2]
C=CC(=O)N1CCC[C@@H](n2nc(-c3ccc(Oc4ccccc4)cc3)c3c(N)ncnc32)C1 [ibrutinib, (R)-1-(3-(4-amino-3-(4-phenoxyphenyl)-1H-pyrazolo[3,4-d]pyrimidin-1-yl)piperidin-1-yl)prop-2-en-1-one]	Fewer cocaine-induced seizures	increase in the percent of time spent moving; also recorded: spent more time moving than flies that only consumed cocaine	significant decrease in the prevalence of seizures	
CC1=C(O)C(=O)[C@@H]2O[C@@H]2C1=O [terreic acid]				reduced binge drinking in mice
